Measurements published in article PMC11672137, “High-Affinity Lectin Ligands Enable the Detection of Pathogenic Pseudomonas aeruginosa Biofilms: Implications for Diagnostics and Therapy” (JACS Au, 2024).

Legend:
[1] = system: P. aeruginosa PAO1 biofilms; test: In vitro biofilm staining under flow conditions, compound supplementation to the medium; type: cell-based, Pseudomonas aeruginosa; settings: for Biofilm staining after accumulation: 500 nM in medium, 4 h, fluorescence microscope; for Biofilm staining by CLSM after accumulation: 500 nM, 4 h accumulation, without washing
Procedure: P. aeruginosa biofilms were grown under flow conditions and observed by fluorescence microscopy in analogy to Ghanbari et al.[66] To this end, P. aeruginosa PAO1 expressing the red fluorescent protein mCherry[56] was diluted to an OD600 nm of 0.1 and injected into the microfluidics device. After a 30-min settling period, biofilms were grown under a constant laminar flow rate of 3 mL/h per channel. Following 48 h of incubation at 30 °C, dense and mature P. aeruginosa PAO1 biofilms were observed, which were then further used for analysis of the imaging probes.
To circumvent these technical drawbacks, the addition of compounds to the medium reservoir and retention at the biofilm was pursued. Imaging compounds were added to the medium reservoirs at a concentration of 500 nM, which were continuously pumped (3 mL/h) through the flow cell for 4 h. Compound accumulation at mature P. aeruginosa biofilms was immediately analyzed using fluorescence microscopy. Afterwards, the medium was exchanged, and the biofilms were washed for 30 min (3 mL/h, no compound) to monitor the retention (Figure 5). Furthermore, an analysis using CLSM was also performed after 4 h of accumulation without washing (Figures 5 and S22).
Figure 5 Staining of P. aeruginosa PAO1 biofilms grown under flow conditions with compound supplementation to the medium. Biofilm staining with (A) fluorescein divalent probe 17, (B) fluorescein control 24, (C) BODIPY divalent probe 19, and (D) BDP FL azide control 18 was monitored after 4 h of accumulation under constant flow (3 mL/h) of LB media containing 500 nM of respective compound. Retention of imaging compounds is shown after a subsequent wash period for 30 min with medium (3 mL/h, no compound). Images were recorded by using a fluorescence microscope. CLSM was performed for (E) BODIPY divalent probe 19 and the control (F) BDP FL azide 18 after 4 h of accumulation. Green signal originates from fluorescently labeled probes 17 and 19 and controls 24 and 18. P. aeruginosa constitutively expressing mCherry from pMP7605^56 is shown in red. Z-Stack size, 2 μm. Scale bar = 50 μm.
In vitro biofilm staining under flow conditions
The flow cell experiment was set up in analogy to Ghanbari et al. and in this study, optimized and established for biofilm staining.25 In principle, the experiment is based on an inlet connected to a medium source, a peristaltic pump providing constant medium flow, a flow chamber enabling analysis of bacterial growth and an outlet (waste container/bottle).
The medium used in the flow system was LB diluted by factor 5 containing 60 µg/mL
Gm. Silicone tubings 1.6 mm (ibidi, Germany) were used transporting medium from inlet to the peristaltic pump (Watson-Marlow Fluid Technology Solutions). Stopper hoses (CarlRoth) placed in peristaltic pump were coupled to silicone tubes via connectors (ibidi, Germany).
Stopper hoses are connected to bubble traps (obtained by Claus Sternberg, DTU Copenhagen) via 0.8 mm silicone tubing (ibidi, Germany). Bubble traps were used to remove air from the medium flow and to avoid biofilm disruption. Downstream from the bubble traps, the flow cell (μ-Slide VI 0.4 ibiTreat, ibidi, Germany) was placed into the system and connected to 1.6 mm silicone tubes (ibidi, Germany). The outlet is leading the medium from flow chamber to a waste […]
In order to inoculate the flow cell with P. aeruginosa PAO1 mCherry (pMP7605)23 the silicone tubes upstream and downstream of the flow chamber were pinched off by using commercial plastic clamps. The medium flow was stopped and the flow cell was inoculated by injecting 300 µL of the bacterial suspension (OD600nm of 0.1) into the silicone tubing upstream of the flow chamber. For this, a cannula (0.30 x 12 mm, Sterican) was used. The injection point was sealed with silicone glue. After bacterial settling time of 30 min, the flow was started again and clamps were removed. Growth temperature was regulated by using a heat system (ibidi, […]
Germany). […]

[2] = system: P. aeruginosa PAO1 biofilm aggregates; test: In vitro biofilm staining under static conditions (CLSM); type: cell-based, Pseudomonas aeruginosa; settings: 10 μM probe
Procedure: The ability of LecA- and LecB-targeting probes to image P. aeruginosa biofilms was evaluated in vitro. P. aeruginosa PAO1, constitutively expressing mCherry from plasmid pMP7605,[56] was cultivated in microtiter plates under shaking conditions to form biofilm aggregates, as reported previously.[43] Fluorescein-carbohydrate conjugates were added to the bacterial culture to reach a final concentration of 10 μM and biofilms were analyzed by confocal laser scanning microscopy (CLSM) under static conditions (Figures 2 and S4). […] To our surprise, the intended negative control xyloside 8 also stained the P. aeruginosa biofilms (Figures 2C and S4). In all cases, the green signal originating from the fluorescein conjugates was not homogeneously spread over the entire structure of the biofilm aggregates, but a certain heterogeneity was observed across biofilm regions as bright spots. Further, the intensity of staining varied between replicates (see the Supporting Information for individual experiments). […] Instead, only a very faint green shadow was detected for 9 indicating its suitability as a negative control. Thus, the observed biofilm staining with imaging probes 2, 3, 6, 7 and also xyloside 8 was carbohydrate dependent and while 2, 3 and 6, 7 are ligands of LecA and LecB, respectively, the molecular mechanism of xyloside 8 remains elusive.
One representative image of stained aggregates is shown. […] Scale bar = 50 μm.
P. aeruginosa PAO1 expressing the red fluorescent protein mCherry (pMP7605)23 was selected for this study. For this, P. aeruginosa PAO1 (DSM 19880, Braunschweig, Germany) was transformed with the mCherry plasmid (pMP7605).23 Bacteria were stored at -80 °C. For experimental use, bacteria were streaked on lysogeny broth (LB) agar (1% tryptone, 1% NaCl, 0,5% yeast extract, 1.3% agar) containing 60 µg/mL gentamicin (Gm) and incubated at 37 °C overnight. For liquid cultures, bacterial colonies were transferred from LB agar to 10 mL LB (1% tryptone, 1% NaCl, 0,5% yeast extract) containing 60 µg/mL Gm and incubated at 37 °C and 180 rpm overnight. For exponential growth, 10 mL of LB containing 60 µg/mL Gm were inoculated with P. aeruginosa PAO1 mCherry (pMP7605)23 using an overnight liquid culture […]
In vitro biofilm staining under static conditions
Biofilm staining experiments were performed in analogy to Wagner et al. with P. aeruginosa PAO1 pMP7605 (Figure S4).23,24 Bacterial overnight cultures were inoculated from single colonies in 5 mL LB supplemented with gentamicin (120 µg/mL) and grown at 37 °C and 180 rpm. The bacterial overnight cultures were then diluted to OD600 of 0.02 with LB and 500 µL of culture per well were transferred to 24-well plate (24CG, Art. No. 5231 or 24FC, Art. No. 3231). The biofilm was grown under shaking conditions (180 rpm) at 37 °C for 20–24 h. Biofilm aggregates were visualized using a confocal laser scanning microscope (Leica TCS Sp8 CLSM) using a 25× numerical-aperture water objective. Z-stacks (463 x 463 μm) were recorded every 2 μm for mCherry (ex.: 561 nm, red) and for fluorescein containing imaging compounds (ex.: 488 nm, green). […]
Maximum Intensity Projections (contrast range automatically adjusted by Imaris). Only one staining experiment was carried out for imaging probes 4 and S26, all other fluorescein conjugates were analyzed in at least three independent experiments.

[3] = molecular target: T1, LecA (Pseudomonas aeruginosa, UniProt Q05097); test: Direct binding assay based on fluorescence polarization, titration with LecA
T1 construct: made in house
T1 sequence (Q05097 whole entry): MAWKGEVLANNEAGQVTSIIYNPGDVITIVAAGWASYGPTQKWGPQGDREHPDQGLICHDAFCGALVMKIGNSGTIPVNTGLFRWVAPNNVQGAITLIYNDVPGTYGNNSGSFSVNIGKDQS
Procedure: The binding affinities of imaging probes 2–4 for LecA were determined using a direct binding assay based on fluorescence polarization (FP).[47]
(A, C) Monovalent LecA imaging probes 2–4 based on phenyl β-D-galactoside (1) were titrated with LecA. […] (E) Xyloside-fluorescein conjugate (8) and azido fluorescein (9) served as negative controls in titrations with LecA and LecB, respectively. Averages and standard deviations were determined from at least three independent titrations of technical triplicates each.
Direct binding affinity determination of LecA and LecB imaging probes was performed with direct titration of protein and imaging probes in TBS/Ca2+ buffer. Protein dilution series was prepared in 96 well plates and 10 µL of each dilution in triplicates were mixed with 10 µL of fluorescent compound (20 nM) in 384-well microtiter plates (Greiner Bio-One, Germany, cat no 781900). The plates were centrifuged (1 min, 500 g), sealed and incubated for 2 h in dark wet chamber under gentle shaking. Fluorescence was measured on a PheraStar FS plate reader (BMG Labtech GmbH, Germany) with excitation filters at 485 nm and emission filters at 535 nm. The data were analysed with MARS Data Analysis Software (BMG Labtech GmbH, Germany) to calculate Kd values.

[4] = system: P. aeruginosa PAO (DSM 1707) lung infection; test: Optical in vivo imaging and ex situ organ analysis in acute P. aeruginosa airway infection model; parameters: species or system mice
Procedure: Encouraged by the high affinity of the imaging probes and their ability to stain P. aeruginosa biofilms in vitro, we further investigated the compounds in vivo using an acute P. aeruginosa airway infection model in mice. Intratracheal administration of P. aeruginosa PAO (DSM 1707) results in a local infection that is mainly restricted to the lungs. With the infection dose of 2 × 10^6 cfu/50 μL chosen here, the number of bacteria peaks at 6 h after infection before the host immune system clears the bacteria.[70]
Then, imaging probes, divalent LecA-targeting probe 21, LecB-targeting probe 22 and the control sulfo-Cy7 (free acid), were administered intravenously to the tail vein 2 h post infection. […] This accumulation in the lungs was then confirmed by a subsequent ex vivo analysis of the organs.
Figure 6 Optical in vivo imaging in mice and ex situ analysis of organs with P. aeruginosa PAO acute lung infection. In vivo imaging of mice with P. aeruginosa intratracheal infection (right) or uninfected control mice (left) after intravenous administration of imaging probes 2 h post infection: (A) 50 nmol/20 g divalent LecA probe 21 or (B) 100 nmol/20 g LecB probe 22. Then, explanted lungs were analyzed for fluorescence intensity, shown as a false color scale in (C) divalent LecA probe 21 (left: uninfected, right: infected) and (D) LecB probe 22 (left: uninfected; middle: uninfected control without dye; right: infected). (E) Quantification of the average radiant efficiency of the divalent LecA ligand 21 and the control sulfo-Cy7 free acid in the lungs of uninfected and infected mice. Duplicate data points and the mean are depicted. (F) Average radiant efficiency was quantified for the LecB imaging probe 22 in lungs of infected and uninfected mice. In addition, (G) further mouse organs were explanted after i.v. injection of 21 (50 nmol/20 g) or control sulfo-Cy7 free acid (50 nmol/20 g) and imaged. Organs of uninfected (left), infected (right) mice, and uninfected mice without any dye (upper middle on the sulfo-Cy7 free acid rows) were compared. Fluorescence intensities are shown as false color pictures. […]
Lung infection model and in vivo imaging of P. aeruginosa
C57BL/6J and albino (Tyrc2J) C57BL/6 mice were bred and housed at the Central Animal Facility, Hannover Medical School, Germany. Animal experiments were performed with permission number: 33.9-42502-04-16/2072 from the Lower Saxony State Office for Consumer Protection and Food Safety (LAVES), Germany. Mice were anesthetized with 3% isoflurane (CP Pharma) and infected intratracheally with 2x10^6 cfu/50 µL of P. aeruginosa PAO (DSM1707, Braunschweig, Germany) as described previously.26
50 – 100 nmol sulfo-Cyanine7-compound (divalent LecA probe 21; LecB probe 22; control sulfoCy7 free acid, CAS no.: 2104632-30-4, Lumiprobe; control sulfoCy7 azide, 20, Lumiprobe) per 20 g mouse was injected intravenously 2 h after infection. Optical imaging was performed 4 – 7 h after compound administration. Mice were anesthetized with 3% isoflurane […]
an in vivo imaging system (IVIS SpectrumCT, PerkinElmer). Subsequently mice were euthanized and organs were imaged (675/760 nm) ex situ individually. To enhance Cyanine7 specific fluorescent signal spectral unmixing was performed on in vivo images using LivingImage 4.7 (PerkinElmer). […]

Row | Compound | Biofilm staining after accumulation ([1]; 3 mL/h) | Biofilm staining by CLSM after accumulation [1] | Staining of biofilm aggregates [2] | Kd [3] [µM] | further results
1 | CC1=CC(C)=[N+]2C1=Cc1ccc(CCC(=O)NCCCN=[N+]=[N-])n1[B-]2(F)F [compound 18, BDP FL azide, reference compound] | did not show any enrichment | no signal was observed | – | – | –
2 | CC1=CC(C)=[N+]2C1=Cc1ccc(CCC(=O)NCCCn3cc(CCN(Cc4ccc(NC(=O)CCc5ccc(O[C@@H]6O[C@H](CO)[C@H](O)[C@H](O)[C@H]6O)cc5)cc4)Cc4ccc(NC(=O)CCc5ccc(O[C@@H]6O[C@H](CO)[C@H](O)[C@H](O)[C@H]6O)cc5)cc4)nn3)n1[B-]2(F)F [compound 19] | strong staining was observed | clear and strong staining predominantly at the periphery of large biofilm aggregates | – | – | Retention at biofilm after wash ([1]; after 4 h accumulation at 500 nM, 30 min wash, 3 mL/h, no compound): the strong signal was still observed
3 | O=C1OC2(c3ccc(O)cc3Oc3cc(O)ccc32)c2ccc(NC(=S)NCCOCCOCCOCCn3cc(CNc4cccc(S[C@@H]5O[C@H](CO)[C@H](O)[C@H](O)[C@H]5O)c4)nn3)cc21 [compound 2] | – | – | showed staining | 5.3 ± 0.7 | –
4 | O=C1OC2(c3ccc(O)cc3Oc3cc(O)ccc32)c2ccc(NC(=S)NCCOCCOCCOCCn3cc(COc4ccc(S[C@@H]5O[C@H](CO)[C@H](O)[C@H](O)[C@H]5O)cc4)nn3)cc21 [compound 4] | – | – | – | 8.5 ± 0.8 | –
5 | O=C1OC2(c3ccc(O)cc3Oc3cc(O)ccc32)c2ccc(NC(=S)NCCOCCOCCOCCn3cc(CNc4ccc(S[C@@H]5O[C@H](CO)[C@H](O)[C@H](O)[C@H]5O)cc4)nn3)cc21 [compound 3] | – | – | showed staining | 11.6 ± 0.7 | –
6 | C[C@@H]1O[C@H](CNS(=O)(=O)c2ccc(-c3cn(CCCNC(=O)CCCCC[N+]4=C(/C=C/C5=CC(=C/C=C6/N(C)c7ccc(S(=O)(=O)O)cc7C6(C)C)/CCC5)C(C)(C)c5cc(S(=O)(=O)[O-])ccc54)nn3)s2)[C@@H](O)[C@H](O)[C@@H]1O [compound 22] | – | – | – | – | Average fluorescence radiant efficiency of explanted lungs ([4]; ex vivo analysis of organs, infected vs uninfected mice): elevated compared with uninfected mice; Cyanine7 signal in lung area, optical in vivo imaging ([4]; i.v. 2 h post infection, infected vs uninfected mice, 21 50 nmol/20 g, 22 100 nmol/20 g): elevated Cyanine7 signals in the area of the lung of infected mice compared to uninfected mice; Fluorescence ex vivo in lungs of uninfected animals compared to control sulfo-Cyanine7 (free acid) ([4]; uninfected mice, ex vivo quantification): a certain accumulation in the lungs of uninfected animals
